Experimental data: US9453849B2, “Methods for staining cells for identification and sorting” (PREMIUM GENETICS (UK) LIMITED, priority 2005, dated 2016)
Read-outs that look alike come from different tables or passages of the source.

Experiments:
DNA = settings: cited from earlier work
cell membranes = settings: not told; cited from earlier work

Excerpt for Bovine sperm: A sample cell was formed by two parallel glass slides coated with 1,500-2000 angstroms (Å) of indium tin oxide (ITO). The slides were separated by fragments of number zero glass cover slips, yielding a slide separation of 100 millimeters (mm).
The sample cell was connected to a resistor-capacitator (RC) circuit by alligator clips. A direct current (DC) power supply was used to charge a capacitor. When a switch was thrown, the discharging capacitor generated a time-dependant and spatially uniform electric field across the sample. An oscilloscope was used to monitor the voltage across the sample cell as a function of time.
The RC circuit formed by the sample cell and capacitor allowed for a well-controlled electric field to be generated. The resistance (R) of the circuit was left floating—that is, determined by the geometry and content of the sample cell. Typical R values ranged from 2-10,000 watts (W) depending primarily on the electrical conductivity of the buffer. The capacitance was varied from 0.1 millifarads (mF) to 1000 mF.
Bovine sperm that had been previously frozen were thawed for 60 seconds in a 96° F. water bath. Sperm were then centrifuged at 2,000 rotations per minute (rpm) for two minutes and the supernatant decanted. Sperm were then re-suspended with 0.35 M sucrose to partially dehydrate the sperm. The sperm solution was then incubated at 96° F. for 15 minutes and then transferred to the sample cell of the electroporation unit.
A voltage was applied to the capacitor circuit, and then the power supply was disconnected. A switch was then thrown and the capacitor discharged across the sample cell. These steps were carried out within 15 seconds of transferring the sperm to the sample cell to retain a random orientation of sperm with respect to the electric field. Electroporation was carried out on sperm in isotonic (0.25 M sucrose) and hypertonic (0.35 M sucrose) solutions. In each case, 10 V was applied to the capacitor and a time constant of 0.26 milliseconds (ms) measured.
A solution of 0.1 M sucrose and the DNA-specific dye, propidium iodide, was then injected into the sample cell. Fluorescence microscopy is used to image the sperm.
To distinguish fluorescent dead cells from fluorescent live cells, sperm motility was assessed.

Row | Compound | base selectivity (Applications) (DNA) | permeability to cell membranes (Applications) (cell membranes) | DNA affinity (Applications) (DNA) | other results
1 | Cc1c2oc3c(C)c(N)cc(C(=O)N[C@@H]4C(=O)N[C@H](C(C)C)C(=O)N5CCC[C@H]5C(=O)N(C)CC(=O)N(C)[C@@H](C(C)C)C(=O)O[C@@H]4C)c3nc-2c(C(=O)N[C@@H]2C(=O)N[C@H](C(C)C)C(=O)N3CCC[C@H]3C(=O)N(C)CC(=O)N(C)[C@@H](C(C)C)C(=O)O[C@@H]2C)c(N)c1=O [7-AAD (7-amino-actinomycin D), 7-amino-actinomycin D] | GC-selective | – | – | –
2 | N=C(N)c1ccc(-c2cc3ccc(C(=N)N)cc3[nH]2)cc1 [DAPI] | AT-selective | Semi-permeant | – | –
3 | CC[n+]1c(/C=C/C=C/c2ccc(N(C)C)cc2)ccc2cc(N(C)C)ccc21.[O-][Cl+3]([O-])([O-])[O-] [LDS 751] | – | Permeant | – | –
4 | COc1ccc2nc3cc(Cl)ccc3c(NCCCNCCCCNCCCNc3c4ccc(Cl)cc4nc4ccc(OC)cc34)c2c1 [Acridine homodimer] | AT-selective | Impermeant | High-affinity DNA binding | –
5 | CC[N+](C)(CC)CCC[n+]1c(-c2ccccc2)c2cc(N)ccc2c2ccc(N)cc21.[I-].[I-] [propidium iodide] | – | Impermeant | – | increase in the number of damaged and non-motile sperm (Bovine sperm): 68%; loss of motile sperm compared to the control (Bovine sperm): 70%; motile and fluorescent sperm (Bovine sperm; control samples unexposed to electric fields): did not yield motile and fluorescent sperm; motile and fluorescent sperm (Bovine sperm; electroporated, 10 V, time constant 0.26 ms, hypertonic/hypotonic solution (0.35 M sucrose, then 0.1 M sucrose with dye)): motile and fluorescent sperm were observed; motile and fluorescent sperm (Bovine sperm; electroporated, 10 V, time constant 0.26 ms, isotonic solution (0.25 M sucrose)): motile and fluorescent sperm were observed; enhancement of the number of motile and fluorescent sperm (Bovine sperm; hypertonic/hypotonic solution compared with isotonic solution): approximately five-ten; fluorescence of observed motile sperm (Bovine sperm; hypertonic/hypotonic solution exposed to the electric field): displayed fluorescence
6 | CN1CCN(c2ccc3nc(-c4ccc5nc(-c6ccc(N(C)C)cc6)[nH]c5c4)[nH]c3c2)CC1 [Hoechst 34580] | AT-selective | – | – | dsDNA selectivity (Applications) (DNA): dsDNA-selective binding
7 | Ethidium homodimer-2 [Ethidium homodimer-2 (EthD-2)] | – | – | Very high-affinity DNA labeling | –
8 | COc1ccc2nc3cc(Cl)ccc3c(N)c2c1 [ACMA, 9-amino-6-chloro-2-methoxyactridine] | AT-selective | – | – | –
9 | Ethidium homodimer-1 [Ethidium homodimer-1 (EthD-1)] | – | – | High-affinity DNA labeling | –
